Starred links: 1 amine or outer side, 2 acyl side, 3 side chain; linkers in the order of their positions; H or OH if unused. Positions of bridges follow the written chain, without caps; N, C: chain ends. Non-standard residues stand in square brackets, D forms with d. Residues, ends and D or L forms follow the SMILES beside them. *: point of attachment. Cys(O)(CH2CO) = O=C([C@H](C[S+]([O-])CC(=O)[*:3])N[*:1])[*:2]; NMeF = CN[C@@H](Cc1ccccc1)C(=O)O; NMeI = CC[C@H](C)[C@H](NC)C(=O)O; NMeL = CN[C@@H](CC(C)C)C(=O)O; NMeA = CN[C@@H](C)C(=O)O; Piperidide = C1CCN(*)CC1; NPrGly = CCCNCC(=O)O; Sar = CNCC(=O)O; tBu = CC(C)(C)*
Experiments:
[1] = Metabolic stability in mouse hepatic microsome; assay type: in vitro ADME; conditions: male, mouse, liver microsomes, pH 7.4; Table 9, thioether versus sulfoxide; read-out: Mouse Hepatic Microsome CLh, int
Procedure: The obtained compound was metabolically reacted at a concentration of 2 uM with mouse serum (male/female mixed, Valley Biomedical, USA) (adjusted to pH 7.4 with 33.5 mM HEPES buffer) for two hours. Deproteinization treatment with acetonitrile was provided over time, the amount of the remaining unchanged compound was analyzed using LC/MS, and the metabolic half-life (t1/2) was calculated. A microsome solution prepared at 0.5 mg protein/mL from mouse hepatic microsome and small intestinal microsome (male, XENOTECH, USA) using 100 mM phosphate buffer (pH 7.4) was metabolically reacted with the compound at a concentration of 1 uM for 30 minutes in the presence or absence of NADPH. Deproteinization treatment with acetonitrile was provided over time, the amount of the remaining unchanged compound was analyzed using LC/MS, and the hepatic-intrinsic clearance (CLh, int) and the small intestinal-intrinsic clearance (CLg, int) were calculated (Table 7). Such peptides were sufficiently slowly metabolized by hydrolysis with peptidases or the like in mouse sera and microsomes, contrary to peptides composed of natural amino acids having low lipophilicity.
Metabolic stability tests were carried out in the same manner as shown in 2-1.

[2] = Metabolic stability in human hepatic microsome; assay type: in vitro ADME; conditions: microsomes, pH 7.4; human hepatic microsome, NADPH(+); read-out: CL NADPH(+)
[3] = PAMPA (parallel artificial membrane permeability assay); assay type: in vitro ADME; conditions: PAMPA; membrane permeation rate (Pe); 50 mM MOPSO buffer pH 6.5 with 5.0% glycocholic acid, 37° C., 18 hours; read-out: iPAMPA Pe
How it was run: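 Artificial membrane was 10% (w/v) egg lecithin plus 0.5% (w/v) cholesterol in dodecane on a PVDF filter. A 10 mM DMSO stock was added at 0.5% (v/v) to donor buffer (50 mM MOPSO, pH 6.5, 5.0% glycocholic acid). After 18 h at 37 °C, LC/MS or LC/UV gave donor and acceptor levels for Pe.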

[4] = Mouse PK test of peptides (intravenous and oral administration); conditions: male, C57BL/6J, in vivo, 20 mg/kg

Row | SMILES | microsomal CLint at 1 uM [1] | microsomal CLint at 1 uM [2] | Papp at 18 hours, 50 µM [3] | AUC ([4]; iv) | C0 ([4]; iv) | Vd ([4]; iv) | clearance ([4]; iv) | half-life ([4]; iv) | AUC ([4]; po) | CL/F ([4]; po) | Cmax ([4]; po) | Tmax ([4]; po) | bioavailability ([4]; po) | half-life ([4]; po)
1 | CC[C@H](C)[C@H]1C(=O)N[C@H](C(=O)N2CCCCC2)C[S+]([O-])CC(=O)N(C)[C@@H](Cc2ccccc2)C(=O)N(C)[C@@H](C)C(=O)N(C)[C@@H](Cc2ccccc2)C(=O)N(C)[C@@H](CC(C)C)C(=O)N[C@@H]([C@@H](C)O)C(=O)N(C)CC(=O)N(C)[C@@H](CC(C)C)C(=O)N[C@@H](COC(C)(C)C)C(=O)N1C (stereo partly drawn) [Compound P-116, (5S,8S,11S,14S,17S,23S,26S,29S,32R)-5,11-dibenzyl-26-(tert-butoxymethyl)-29-((S)-sec-butyl)-17-((R)-1-hydroxyethyl)-14,23-diisobutyl-4,7,8,10,13,19,22,28-octamethyl-32-(piperidine-1-carbonyl)-1-thia-4,7,10,13,16,19,22,25,28,31-decaazacyclotritriacontane-3,6,9,12,15,18,21,24,27,30-decone 1-oxide] ([NMeF][NMeA][NMeF][NMeL]T[Sar][NMeL]S(tBu)[NMeI][Cys(O)(CH2CO)]-Piperidide; lactam N-10) | 56.5 µL/min/mg | – | – | – | – | – | – | – | – | – | – | – | – | –
2 | CC[C@H](C)[C@H]1C(=O)N[C@H](C(=O)N2CCCCC2)C[S+]([O-])CC(=O)N(C)[C@@H](C)C(=O)N[C@@H](Cc2ccccc2)C(=O)N(C)[C@@H](CC(C)C)C(=O)N[C@@H]([C@@H](C)O)C(=O)N(C)CC(=O)N(C)[C@@H](CC(C)C)C(=O)N[C@@H](COC(C)(C)C)C(=O)N1C (stereo partly drawn) [Compound P-117, (5S,8S,11S,14S,20S,23S,26S,29R)-8-benzyl-23-(tert-butoxymethyl)-26-((S)-sec-butyl)-14-((R)-1-hydroxyethyl)-11,20-diisobutyl-4,5,10,16,19,25-hexamethyl-29-(piperidine-1-carbonyl)-1-thia-4,7,10,13,16,19,22,25,28-nonaazacyclotriacontane-3,6,9,12,15,18,21,24,27-nonone 1-oxide] ([NMeA]F[NMeL]T[Sar][NMeL]S(tBu)[NMeI][Cys(O)(CH2CO)]-Piperidide; lactam N-9) | 36 µL/min/mg | – | – | – | – | – | – | – | – | – | – | – | – | –
3 | CC(C)C[C@@H]1NC(=O)[C@H](Cc2ccccc2)N(C)C(=O)[C@H](Cc2ccccc2)N(C)C(=O)[C@H](CC(C)C)NC(=O)[C@H](C)N(C)C(=O)[C@H]([C@@H](C)O)NC(=O)[C@H](C)N(C)C(=O)C[C@@H](C(=O)N2CCCCC2)NC(=O)[C@H](CC(C)C)N(C)C1=O [DP-125] ([NMeA]T[NMeA]L[NMeF][NMeF]L[NMeL]D-Piperidide; lactam N-9) | – | 189 µL/min/mg | 55 ×10⁻⁶ cm/s | 35400 ng·h/mL | 46400 ng/mL | 0.545 L/kg | 9.49 mL/min/kg | 1.44 h | 12100 ng·h/mL | 27.5 mL/min/kg | 3090 ng/mL | 3.5 h | 34.6% | –
4 | CC[C@H](C)[C@H]1C(=O)N[C@H](C(=O)N2CCCCC2)CC(=O)N[C@H](C(C)C)C(=O)N(C)[C@@H](Cc2ccccc2)C(=O)N(C)[C@@H](CC(C)C)C(=O)N[C@@H]([C@@H](C)O)C(=O)N(C)CC(=O)N(C)[C@@H](CC(C)C)C(=O)N[C@@H](COC(C)(C)C)C(=O)N1C [DP-265] ([dV][NMeF][NMeL]T[Sar][NMeL]S(tBu)[NMeI]D-Piperidide; lactam N-9) | – | 58 µL/min/mg | 42 ×10⁻⁶ cm/s | 35300 ng·h/mL | 58300 ng/mL | 0.713 L/kg | 9.48 mL/min/kg | 1.82 h | 5120 ng·h/mL | 65.1 mL/min/kg | 2850 ng/mL | 0.67 h | 14.5% | 1.96 h
5 | CCCN1CC(=O)N(C)[C@@H](CC(C)C)C(=O)N[C@@H]([C@@H](C)O)C(=O)N(C)[C@@H](C)C(=O)N(C)[C@@H](CC(C)C)C(=O)N(C)[C@@H]([C@@H](C)CC)C(=O)N[C@@H](COC(C)(C)C)C(=O)N[C@H](C(=O)N2CCCCC2)CC(=O)N(C)[C@@H](C)C(=O)N(C)[C@@H](Cc2ccccc2)C1=O [DP-540] ([NMeA][NMeF][NPrGly][NMeL]T[NMeA][NMeL][NMeI]S(tBu)D-Piperidide; lactam N-10) | – | 67 µL/min/mg | 36 ×10⁻⁶ cm/s | 41400 ng·h/mL | 48100 ng/mL | 0.803 L/kg | 8.16 mL/min/kg | 1.63 h | 9800 ng·h/mL | 35.8 mL/min/kg | 1870 ng/mL | 1.83 h | 23.7% | 3.11 h

From patent US9409952B2, “Peptide-compound cyclization method” (Chugai Seiyaku Kabushiki Kaisha, priority 2011, dated 2016)
